In US5807855A, “1-piperazino-1,2-dihydroindene derivatives” (priority 1992, dated 1998):

Assays:
DA D2 receptors = biological target: T1, DA D2 receptors (Rattus norvegicus, UniProt P61169); experiment: Inhibition of 3H-spiperone binding to DA D2 receptors in rat striatal membranes; settings: rat striatal membranes, 3H-spiperone; read-out: Receptor Binding; IC50, D2 3H-Spi
T1 construct: DA D2 receptors in rat striatal membranes; from tissue; host or cells: rat striatal membranes

DA D1 receptor = DA D1 receptor (Rattus norvegicus, UniProt P18901); experiment: biochemical; type: binding; settings: rat striatal membranes, 3H-SCH 23390; read-out: Receptor Binding; IC50, D1 3H-SCH
Sequence of DA D1 receptor (P18901 whole entry): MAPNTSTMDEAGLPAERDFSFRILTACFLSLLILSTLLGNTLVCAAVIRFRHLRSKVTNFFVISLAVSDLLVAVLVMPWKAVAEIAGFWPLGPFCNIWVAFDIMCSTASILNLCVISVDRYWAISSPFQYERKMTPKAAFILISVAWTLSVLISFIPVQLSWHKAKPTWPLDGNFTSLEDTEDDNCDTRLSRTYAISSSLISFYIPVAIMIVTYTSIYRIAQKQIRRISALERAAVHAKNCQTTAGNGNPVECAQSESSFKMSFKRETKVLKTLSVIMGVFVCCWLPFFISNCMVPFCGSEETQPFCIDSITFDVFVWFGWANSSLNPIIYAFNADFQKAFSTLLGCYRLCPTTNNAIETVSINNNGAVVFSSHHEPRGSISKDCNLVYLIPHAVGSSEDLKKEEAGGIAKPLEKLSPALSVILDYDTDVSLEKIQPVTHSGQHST

T1 sequence (P61169 whole entry): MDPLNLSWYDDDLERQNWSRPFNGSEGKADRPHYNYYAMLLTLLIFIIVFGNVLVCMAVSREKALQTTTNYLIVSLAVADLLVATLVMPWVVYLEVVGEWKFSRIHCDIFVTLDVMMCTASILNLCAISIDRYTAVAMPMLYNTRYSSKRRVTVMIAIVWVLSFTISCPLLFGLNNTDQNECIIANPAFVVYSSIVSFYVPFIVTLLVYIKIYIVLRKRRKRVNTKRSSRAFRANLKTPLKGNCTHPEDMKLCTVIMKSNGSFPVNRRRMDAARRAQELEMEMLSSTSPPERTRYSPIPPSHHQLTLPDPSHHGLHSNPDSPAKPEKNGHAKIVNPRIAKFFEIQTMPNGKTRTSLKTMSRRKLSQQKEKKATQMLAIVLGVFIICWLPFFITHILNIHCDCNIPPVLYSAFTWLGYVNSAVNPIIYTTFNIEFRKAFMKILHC

SMILES	IC50 (DA D2 receptors) [nM]	IC50 (DA D1 receptor) [nM]
CC1(C)CN([C@@H]2C[C@@H](c3ccc(F)cc3)c3ccc(C(F)(F)F)cc32)CCN1 (racemic) [Compound 6, (±)-Trans-2,2-dimethyl-4-[6-trifluoromethyl-3-(4-fluorophenyl)-2,3-dihydro-1H-inden-1-yl]piperazine]	5.2	2.8
CCC1(CC)CN([C@@H]2C[C@@H](c3ccc(F)cc3)c3ccc(Cl)cc32)CCN1C (racemic) [Compound 24, (±)-Trans-4-[6-chloro-3-(4-fluorophenyl)-2,3-dihydro-1H-inden-1-yl]-2,2-diethyl-1-methylpiperazine]	38	8.8
C[C@@H]1CN([C@@H]2C[C@@H](c3ccc(F)cc3)c3ccc(C(F)(F)F)cc32)C[C@H](C)N1 (racemic) [Compound 27, (±)-Trans-4-[6-trifluoromethyl-3-(4-fluorophenyl)-2,3-dihydro-1H-inden-1-yl]-cis-2,6-dimethylpiperazine]	33	50
CN1CCN([C@@H]2C[C@@H](c3ccsc3)c3ccc(Cl)cc32)CC12CCCC2 (racemic) [Compound 30, (±)-Trans-9-[6-chloro-3-(3-thienyl)-2,3-dihydro-1H-inden-1-yl]-6-methyl-6,9-diazaspiro[4.5]decane]	5	1.8
CN1CCN([C@@H]2C[C@@H](c3ccc(F)cc3)c3ccc(Cl)cc32)CC12CCCCC2 (racemic) [Compound 32, (±)-Trans-4-[6-chloro-3-(4-fluorophenyl)-2,3-dihydro-1H-inden-1-yl]-1-methyl-1,4-diazaspiro[5.5]undecan]	24	6
CC(C)N1CCN([C@@H]2C[C@@H](c3ccc(F)cc3)c3ccc(Cl)cc32)CC12CCCC2 (racemic) [Compound 42, (±)-Trans-9-[6-chloro-3-(4-fluorophenyl)-2,3-dihydro-1H-inden-1-yl]-6-(2-propyl)-6,9-diazaspiro[4.5]decane]	8.8	1.3
CC1(C)CN([C@@H]2C[C@@H](c3ccsc3)c3ccc(Cl)cc32)CCN1CCO (racemic) [Compound 45, (±)-Trans-4-[6-chloro-3-(3-thienyl)-2,3-dihydro-1H-inden-1-yl]-2,2-dimethyl-1-piperazineethanol]	2.8	0.82

The next lines start with the values.

IC50 (DA D2 receptors) [nM]	IC50 (DA D1 receptor) [nM]	SMILES
12	2.4	CC1CN([C@@H]2C[C@@H](c3ccc(F)cc3)c3ccc(Cl)cc32)CCN1C (mixture of isomers) [Compound 18, (±)-Trans-4-[6-chloro-3-(4-fluorophenyl)-2,3-dihydro-1H-inden-1-yl]-1,2-dimethylpiperazine]
11	2.1	Fc1ccc([C@@H]2C[C@@H](N3CCN4CCCCC4C3)c3cc(Cl)ccc32)cc1 (mixture of isomers) [Compound 34, (±)-Trans-2-[6-chloro-3-(4-fluorophenyl)-2,3-dihydro-1H-inden-1-yl]-octahydropyrido[1,2-a]pyrazine]
17	1.6	CC(C)N1CCN([C@@H]2C[C@@H](c3ccc(F)cc3)c3ccc(Cl)cc32)CC1C (mixture of isomers) [Compound 41, (±)-Trans-4-[6-chloro-3-(4-fluorophenyl)-2,3-dihydro-1H-inden-1-yl]-2-methyl-1-(2-propyl)piperazine]
3	1	CC1(C)CN([C@@H]2C[C@@H](c3ccc(F)cc3)c3ccc(Cl)cc32)CCN1CCO (racemic) [Compound 43, (±)-Trans-4-[6-chloro-3-(4-fluorophenyl)-2,3-dihydro-1H-inden-1-yl]-2,2-dimethyl-1-piperazineethanol]
36	3.2	CC(C)C1CN([C@@H]2C[C@@H](c3ccc(F)cc3)c3ccc(Cl)cc32)CCN1C (relative stereo) [Compound 21, Trans-4-[6-chloro-3-(4-fluorophenyl)-2,3-dihydro-1H-inden-1-yl]-1-methyl-2-(2-propyl)piperazine]
